The values below come from paper PMC10539361, “Allosteric modulation of the fish taste receptor type 1 (T1R) family by the extracellular chloride ion” (Scientific Reports, 2023).

Positions count from the first letter of the chain named.

In experiment [1] the target is T1, hT1R2/hT1R3 (Homo sapiens, UniProt Q7RTX0+Q8TE23).
T1 construct: expressed in transfected cells
T1 sequence (Q8TE23 20-839): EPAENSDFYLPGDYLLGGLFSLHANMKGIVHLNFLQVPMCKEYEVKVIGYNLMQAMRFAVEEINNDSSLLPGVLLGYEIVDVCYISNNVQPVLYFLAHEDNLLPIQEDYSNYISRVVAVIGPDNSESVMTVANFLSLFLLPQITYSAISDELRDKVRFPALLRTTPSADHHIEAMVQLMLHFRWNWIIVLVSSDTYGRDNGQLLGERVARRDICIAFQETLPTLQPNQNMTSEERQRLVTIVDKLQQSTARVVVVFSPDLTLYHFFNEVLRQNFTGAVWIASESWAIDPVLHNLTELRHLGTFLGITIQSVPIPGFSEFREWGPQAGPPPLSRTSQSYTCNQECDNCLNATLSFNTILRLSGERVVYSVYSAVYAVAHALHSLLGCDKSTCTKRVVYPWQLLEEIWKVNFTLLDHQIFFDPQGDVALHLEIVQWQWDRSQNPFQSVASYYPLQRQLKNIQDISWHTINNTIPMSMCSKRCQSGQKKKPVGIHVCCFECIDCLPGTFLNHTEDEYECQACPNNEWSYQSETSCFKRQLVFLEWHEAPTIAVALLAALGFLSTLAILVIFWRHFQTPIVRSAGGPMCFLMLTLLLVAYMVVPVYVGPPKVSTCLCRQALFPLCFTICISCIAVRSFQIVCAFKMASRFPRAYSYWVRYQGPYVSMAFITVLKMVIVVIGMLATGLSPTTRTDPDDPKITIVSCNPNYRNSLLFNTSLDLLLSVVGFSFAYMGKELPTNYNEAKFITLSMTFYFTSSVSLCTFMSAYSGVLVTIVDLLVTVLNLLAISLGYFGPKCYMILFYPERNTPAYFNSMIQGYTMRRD
T1 sequence (Q7RTX0 21-852): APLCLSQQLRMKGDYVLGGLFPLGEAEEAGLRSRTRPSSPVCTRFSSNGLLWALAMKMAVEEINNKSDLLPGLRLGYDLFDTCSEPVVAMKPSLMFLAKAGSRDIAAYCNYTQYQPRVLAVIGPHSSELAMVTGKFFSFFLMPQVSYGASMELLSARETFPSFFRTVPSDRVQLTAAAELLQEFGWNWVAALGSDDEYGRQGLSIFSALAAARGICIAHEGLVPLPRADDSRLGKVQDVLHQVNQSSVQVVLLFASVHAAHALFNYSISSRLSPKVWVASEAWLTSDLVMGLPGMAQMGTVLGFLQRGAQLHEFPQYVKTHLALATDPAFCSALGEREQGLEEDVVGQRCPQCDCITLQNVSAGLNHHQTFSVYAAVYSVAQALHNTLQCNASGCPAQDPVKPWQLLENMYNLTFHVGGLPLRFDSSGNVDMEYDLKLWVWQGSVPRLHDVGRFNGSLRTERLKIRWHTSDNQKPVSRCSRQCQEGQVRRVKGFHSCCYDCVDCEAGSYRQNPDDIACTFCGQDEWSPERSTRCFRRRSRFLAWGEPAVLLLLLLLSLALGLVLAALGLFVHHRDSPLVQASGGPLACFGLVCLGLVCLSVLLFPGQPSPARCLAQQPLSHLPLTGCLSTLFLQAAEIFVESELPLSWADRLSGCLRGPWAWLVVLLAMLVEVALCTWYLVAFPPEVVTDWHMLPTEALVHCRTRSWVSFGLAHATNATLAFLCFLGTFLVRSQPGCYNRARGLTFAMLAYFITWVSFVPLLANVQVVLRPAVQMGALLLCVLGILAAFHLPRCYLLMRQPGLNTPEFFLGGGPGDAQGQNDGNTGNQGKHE
Put plainly: Ca2+ mobilization dose-response assay, stable cells expressing hT1R2/hT1R3 with G16gust44. In kind it is cell-based. To be noted: for sensitivity in high (141.4 mM) Cl- buffer vs 10 mM Cl- buffer: 10 mM vs 141.4 mM Cl- buffer. A general note: A change in cytosolic calcium serves as a functional read-out for many receptors and channels.
Description: (§1) The buffers with lower Cl^− were prepared by progressively replacing NaCl, KCl, CaCl2 and MgCl2 in the buffer with gluconate equivalents[20]. The pH was adjusted to 7.4 with NaOH. Ligands were diluted with the assay buffers at the desired concentrations.
Measurements of the responses of the cells by cell-based assay based on the intracellular Ca^2+ mobilization were carried out as described previously with some modifications[20],[34],[46],[47]. […] The cells were seeded in 96-well plates (clear-bottomed CellBIND surface plate, Corning, Glendale, AZ, USA) coated with ε-poly-L-lysine (Cosmo Bio, Tokyo, Japan) at approximately 70,000 cells per well. After 20 h, the medium was removed and replaced with high Cl^− buffer. After 3 h 30 min incubation at 27 °C, cells were loaded with 5 µM calcium-indicator dye Fluo-8 AM (AAT Bioquest, Sunnyvale, CA, USA) diluted in high Cl^− buffer. After incubation for 30 min at 27 °C, the cells were washed with buffers containing appropriate concentrations of Cl^−. The cellular assay was initiated after 3–5 min of resting and was completed within 5 min. The measurements were made using FlexStation 3 (Molecular Devices, Sunnyvale, CA, USA) at 27 °C. Fluorescence changes (i.e., excitation at 485 nm and emission at 525 nm with a cutoff at 515 nm) were monitored at 2 s intervals. A 100-µL aliquot of assay buffer supplemented with 2 × ligands was added at 20 s, and scanning was continued for an additional 40 s. The response of each well was determined as ∆RFU (delta relative fluorescent units), which was calculated as (maximum fluorescent value)—(minimum fluorescent value). […] Such normalized data from more than three independent experiments are reported as the mean ± standard error of the mean (SEM). Dose‒response fitting curves were calculated by Prism 9 (GraphPad Software, San Diego, CA) using nonlinear regression (log(agonist) vs. response—variable slope), based on the integrated data from the several independent experiments.

The target in experiment [2] is T2, mfT1R2a/mfT1R3 (Oryzias latipes, UniProt Q2MHK2+Q2MHK5).
T2 sequence (Q2MHK5 20-819): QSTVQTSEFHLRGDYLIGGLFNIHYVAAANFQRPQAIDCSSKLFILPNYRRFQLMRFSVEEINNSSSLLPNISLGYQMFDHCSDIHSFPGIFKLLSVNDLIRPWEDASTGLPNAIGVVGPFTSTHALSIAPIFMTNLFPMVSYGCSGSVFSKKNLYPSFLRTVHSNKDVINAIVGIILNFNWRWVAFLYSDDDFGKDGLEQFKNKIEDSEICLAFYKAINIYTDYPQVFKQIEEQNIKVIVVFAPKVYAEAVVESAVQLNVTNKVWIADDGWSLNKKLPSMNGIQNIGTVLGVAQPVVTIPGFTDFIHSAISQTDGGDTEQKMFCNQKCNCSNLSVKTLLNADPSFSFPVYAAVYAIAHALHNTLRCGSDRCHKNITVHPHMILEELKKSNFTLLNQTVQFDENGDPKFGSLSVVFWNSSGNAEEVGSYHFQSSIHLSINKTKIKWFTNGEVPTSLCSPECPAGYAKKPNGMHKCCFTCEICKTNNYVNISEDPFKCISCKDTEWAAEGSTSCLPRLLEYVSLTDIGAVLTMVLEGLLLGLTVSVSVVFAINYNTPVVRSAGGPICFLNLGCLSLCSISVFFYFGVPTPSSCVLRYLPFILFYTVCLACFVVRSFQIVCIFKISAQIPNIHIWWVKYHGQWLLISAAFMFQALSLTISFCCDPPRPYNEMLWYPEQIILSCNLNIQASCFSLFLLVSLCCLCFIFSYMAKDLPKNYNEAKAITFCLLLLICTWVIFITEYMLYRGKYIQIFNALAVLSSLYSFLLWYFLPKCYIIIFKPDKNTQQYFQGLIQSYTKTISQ
T2 sequence (Q2MHK2 20-853): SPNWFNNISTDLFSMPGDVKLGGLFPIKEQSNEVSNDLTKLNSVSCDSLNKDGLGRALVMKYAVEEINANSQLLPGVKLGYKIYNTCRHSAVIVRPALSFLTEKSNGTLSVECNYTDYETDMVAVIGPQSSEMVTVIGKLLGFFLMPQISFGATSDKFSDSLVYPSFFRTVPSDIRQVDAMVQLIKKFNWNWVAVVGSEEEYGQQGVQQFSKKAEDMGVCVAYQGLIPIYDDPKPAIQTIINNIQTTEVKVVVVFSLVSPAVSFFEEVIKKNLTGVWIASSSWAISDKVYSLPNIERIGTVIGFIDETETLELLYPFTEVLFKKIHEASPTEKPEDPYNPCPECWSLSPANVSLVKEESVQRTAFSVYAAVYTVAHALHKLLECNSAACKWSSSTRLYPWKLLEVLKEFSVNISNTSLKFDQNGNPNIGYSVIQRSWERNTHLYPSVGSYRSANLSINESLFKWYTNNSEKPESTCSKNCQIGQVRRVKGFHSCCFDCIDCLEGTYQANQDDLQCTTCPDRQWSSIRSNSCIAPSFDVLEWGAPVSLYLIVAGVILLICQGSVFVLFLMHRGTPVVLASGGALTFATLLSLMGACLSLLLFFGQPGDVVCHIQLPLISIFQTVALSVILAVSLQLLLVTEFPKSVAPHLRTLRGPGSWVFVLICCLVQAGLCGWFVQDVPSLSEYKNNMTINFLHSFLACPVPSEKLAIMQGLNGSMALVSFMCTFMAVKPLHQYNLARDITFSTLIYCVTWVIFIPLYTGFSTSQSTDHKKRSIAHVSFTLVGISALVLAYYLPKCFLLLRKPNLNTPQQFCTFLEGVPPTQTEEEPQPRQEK
Put plainly: Effect of anions, cations and osmotic pressure on cellular responses, cells in 10 mM Cl- buffer, mfT1R2a/mfT1R3. In kind it is cell-based, medaka fish. The procedure: Cells were seeded in 96-well plates coated with ε-poly-L-lysine at approximately 70,000 cells per well. […] Fluorescence changes were monitored at 2 s intervals, as described above. […] Three independent experiments were conducted for each receptor, and representative results are shown as the mean ± SEM (n = 3 replicates). Statistical tests were conducted using KyPlot version 6.0 (KyensLab Inc., Tokyo, Japan). Statistical significance was set at p < 0.05.

In experiment [3] the target is T3, hT1R2/hT1R3 T102E (Homo sapiens, UniProt Q7RTX0+Q8TE23, T102E).
T3 sequence (Q8TE23 20-839): T1 sequence (Q8TE23 20-839)
T3 sequence (Q7RTX0 21-852 T102E): T1 sequence (Q7RTX0 21-852) with T82E
Put plainly: Ca2+ mobilization dose-response assay, site X mutant hT1R2/hT1R3 T102E. To be noted: EC50, [Cl-]o=10 mM; unit inferred.
Description: as §1
Measurements of the responses of the cells by cell-based assay based on the intracellular Ca^2+ mobilization were carried out as described previously with some modifications[20],[34],[46],[47]. Cell lines stably expressing T1R2, T1R3 and chimeric G-protein α-subunit, G16gust44[48], were constructed using the Flp-In pcDNA5/FRT complete system (Thermo Fisher Scientific, Waltham, MA, USA) described in our previous studies[34],[46]. […] Fluorescence changes (i.e., excitation at 485 nm and emission at 525 nm with a cutoff at 515 nm) were monitored at 2 s intervals. […] The response of each well was determined as ∆RFU (delta relative fluorescent units), which was calculated as (maximum fluorescent value)—(minimum fluorescent value). […] Dose‒response fitting curves were calculated by Prism 9 (GraphPad Software, San Diego, CA) using nonlinear regression (log(agonist) vs. response—variable slope), based on the integrated data from the several independent experiments.

For `N[C@H](Cc1c[nH]c2ccccc12)C(=O)O` [D-tryptophan], the “sensitivity in high (141.4 mM) Cl- buffer vs 10 mM Cl- buffer” value in experiment [1] is “comparable”.
`[Br-].[Na+]` [NaBr]: in experiment [2] (added to 10 mM Cl- buffer with 200 µM L-Gln), the “additional anion concentration needed to significantly increase the response intensity to L-Gln” value came out at 5 mM. For the same molecule, the “response to fixed concentration of L-Gln on coapplication” value in experiment [2] (coapplied with 200 µM L-Gln, cells in 10 mM Cl- buffer, final [Cl-]o up to 60 mM) is reported as “enhanced”. Further, in experiment [2] (without agonist, cells in 10 mM Cl- buffer), the “cellular response to the salt alone” value was “did not elicit”.
The EC50 is the concentration at which the effect is half-maximal. Low readings indicate higher potency in that assay, high ones lower potency in that assay. Take `OC[C@H]1O[C@H](O[C@]2(CCl)O[C@H](CCl)[C@@H](O)[C@@H]2O)[C@H](O)[C@@H](O)[C@H]1Cl` [sucralose, Sucralose]: the “sensitivity in high (141.4 mM) Cl- buffer vs 10 mM Cl- buffer” value in experiment [1] was “comparable”. Besides, the EC50 in experiment [1] ([Cl-]o=10 mM, unit inferred) amounted to 92.5 µM; in experiment [3] it was 169 µM.
